We go through 8 compounds from patent US20260001898A1, “Heteroaryl compounds as inhibitors of TYK2/JAK1, composition and application thereof” (Accro Bioscience (HK) Limited, priority 2022, published 2026).

For orientation: IC50 means the concentration at which inhibition is half-maximal. Higher therefore signals weaker potency.

Test [1] relates to JAK2/JAK2 pathway. The test can be described thus: Western blot p-STAT3/STAT3 in TPO-stimulated HEL cells. Format: cell-based. Conditions: TPO 100 ng/mL. As for the experimental part: HEL cells were digested by trypsin, re-suspended in 1640 medium and counted. The compounds to be measured were added to 6 well plates (1 million/per well) for 2 hours, and then thrombopoietin (TPO)(final concentration: 100 ng/mL) was added to stimulate cells for 30 minutes. The cells were collected and lysed with protein lysate. The protein was quantitatively tested by bicinchoninic acid (BCA) kit. Finally, p-STAT3/STAT3 and internal reference protein β-actin were detected by Western blot.

In test [2] the test system is TYK2/JAK2 pathway. Put plainly: Western blot p-STAT4/STAT4 in IL-12-stimulated mouse spleen cells. Format: cell-based, mice. To be noted: IL-12 50 ng/mL. How it is done:
The spleen of mice was isolated and ground into single cells with bent tweezers. The single cells of the spleen were centrifuged for 5 minutes (400 g), and erythrocytes were lysed with Ammonium-Chloride-Potassium (ACK) solution and neutralized in 1640 medium, centrifuged for 5 minutes (400 g), and then re-suspended in 1640 medium. The spleen single cell suspension was counted, transferred to and incubated on a 6-well plate (5 million/well). The compounds to be tested were added. After 2 hours, IL-12 (50 ng/mL) was added to stimulate the cells for 1 h. The cells were collected and lysed with protein lysate. The protein was quantitatively tested by BCA kit. Finally, p-STAT4/STAT4 and internal reference protein […] were detected by Western blot.

The test system of test [3] is JAK1/JAK2 pathway. The test can be described thus: Western blot p-STAT1/STAT1 in IFN-γ-stimulated HT-29 cells. In kind it is cell-based. Conditions: IFN-γ 100 ng/mL. As for the experimental part: HT-29 cells were digested by trypsin and suspended in Dulbecco's Modified Eagle Medium (DMEM) and counted. The tested compounds were added into the 6 well plates (400 000/per well). After 2 hours, IFN-γ (100 ng/mL) was added to stimulate cells for 30 minutes. The cells were collected and lysed with protein lysate. The protein was quantitatively tested by BCA kit. Finally, p-STAT1/STAT1 and internal reference protein β-actin were detected by Western blot.
In general terms: A western blot detects proteins with antibodies after separation by electrophoresis.

Test [4] deals with IFNα induced TYK2/JAK1 mediated STAT activation. Put plainly: Luciferase assay in L929 ISRE cells stimulated with IFN-α. In kind it is cell-based. To be noted: IFN-α 100 ng/mL; for inhibition at 0.2 µM / inhibition at 1 µM / inhibition at 0.05 µM: Mus musculus; for inhibition at 0.2 µM: read-out: Inhibitory activity % (200 nM); for inhibition at 1 µM: read-out: Inhibitory activity % (1000 nM); for inhibition at 0.05 µM: read-out: Inhibitory activity % (50 nM). How it is done:
• 1. L929 ISRE cells (5000 cells/well) were seeded on 96-well plates and incubated overnight at room temperature-; • 2. The cells were pretreated by adding different concentrations (10 nM, 50 nM, 100 nM, 200 nM or 1000 nM) of the test compounds for 2 hours; • 3. Added IFN-α (100 ng/mL) to stimulate cells for 6 hours; • 4. Removed the upper medium, add PBS (100 μL) and washed, then removed PBS; • 5. Added PLB lysis solution (50 μL) to each well, shook the well for 15 minutes; • 6. Transferred PLB lysis solution (30 μL) to a new 96-well whiteboard, added LAR II reagent (LAR II), then quickly read the 450 nm OD value with a plate washer; • 7. Added Stop & Glo reagent (30 μL), then read the 450 nm OD value using the plate washer. • 8. The final result was the OD value in step 6/OD value in step 7.

Test [5] has as its system JAK2 and TYK2. To be noted: some studies, background; cited from earlier work.
Test [6] concerns IFNα induced CXCL-10 in PBMC. The test can be described thus: ELISA of IFNα induced CXCL-10 in PBMC. In kind it is cell-based. Conditions: IFNα induced CXCL-10 in PBMC. How it is done:
• 1. Soak plate: Add 300 μL 1× washing solution and let stand for 30 seconds. After discarding the washing solution, anhydrous the microporous plate on absorbent paper. • 2. Add standard: Add 100 μL of 2-fold standard to standard well. Add 100 μL standard dilution (serum/plasma sample) or culture medium (cell culture supernatant sample) to blank well. • 3. Add sample: Serum/plasma: Add 50 μL 1× assay buffer and 50 μL sample to sample well. Cell culture supernatant: Add 100 μL cell culture supernatant to sample well. • 4. Add detection antibody: Add 50 μL diluted detection antibody (1:100 diluted) to each well. Make sure steps 4, 5 and 6 are added continuously without interruption. The sampling process was completed within 15 minutes. • 5. Incubation: Use sealing plate film to seal the plate. Shake at 300 rpm and incubate for 2 hours at room temperature. • 6. Washing: Discard the liquid, add 300 μL of washing solution and wash the plate 6 times. Pat anhydrous on blotting paper after each wash. To obtain the desired experimental performance, the residual liquid must be completely removed. • 7. Enzyme addition: Add 100 μL diluted horseradish peroxidase labeled streptavidin to each well (1:100 diluted). • 8. Incubation: Seal the plate with a new sealing film. Shake at 300 rpm and incubate at room temperature for 45 minutes. • 9. Washing: Repeat […]. • 10. Add substrate for color development: Add 100 μL of color development substrate TMB to each well, keep away from light, and incubate at room temperature for 5-30 minutes. • 11. Add Stop Solution: Add 100 μL stop solution to each well. The color changed from blue to yellow. If the color appears green or the color changes unevenly, gently tap the frame of the plate to mix well. • 12. Assay readout: Within 30 minutes, perform dual wavelength detection using a microplate reader to measure the OD at the absorption maximum at 450 nm and reference wavelengths at 570 nm or 630 nm. The calibrated OD value is the measured value at 450 nm minus the measured value at 570 nm or 630 nm.

For the compound `COc1c(Nc2cc(Nc3ccn(C)n3)nnc2C(N)=O)cccc1-c1cc(P(=O)(C2CC2)C2CC2)n(C)n1` [Compound A17], the “effect on TPO-induced downstream STAT3 phosphorylation (JAK2/JAK2 pathway)” value (“effect … (JAK2/JAK2 pathway)” for short) in test [1] is on record as “had no effect on TPO-induced downstream STAT3 phosphorylation”. Also, the “inhibition of downstream STAT4 phosphorylation induced by IL-12 (TYK2/JAK2 pathway)” value (“inhibition … (TYK2/JAK2 pathway)” for short) in test [2] is on record as “effectively inhibited the downstream STAT4 phosphorylation induced by IL-12”. In addition, the “effect on downstream STAT1 phosphorylation induced by IFN-γ (JAK1/JAK2 pathway)” value (shortened to “effect … (JAK1/JAK2 pathway)”) in test [3] is recorded as “inhibited JAK1/JAK2 pathway in a concentration-dependent manner”. Also, in test [4] (200 nM compound), the inhibition at 0.2 µM was 42%. In addition, the inhibition at 1 µM in test [4] (1000 nM compound) is 82%.

`[2H]C([2H])([2H])n1nc(-c2cccc(Nc3cc(Nc4cc(C#N)ccn4)nnc3C(N)=O)c2OC)cc1P(=O)(C1CC1)C1CC1` [Compound A49]: the “effect … (JAK2/JAK2 pathway)” value in test [1] was “had no effect on TPO-induced downstream STAT3 phosphorylation”. Further, the “inhibition … (TYK2/JAK2 pathway)” value in test [2] is given as “effectively inhibited the downstream STAT4 phosphorylation induced by IL-12”. Further, in test [3], the “effect … (JAK1/JAK2 pathway)” value is listed as “inhibited JAK1/JAK2 pathway in a concentration-dependent manner”. Also, the inhibition at 0.05 µM in test [4] (50 nM compound) came out at 33%. In test [4] (200 nM compound), the inhibition at 0.2 µM worked out at 86%. The inhibition at 1 µM in test [4] (1000 nM compound) was 87%.

With `Cn1cc(Nc2nccc(N3C[C@H]4CC[C@@H](C3)N4C(=O)[C@@H]3CC3(F)F)n2)cn1` [PF-06700841], the “ratio of JAK2 IC50/TYK2 IC50” value in test [5] was “about 3.3”.

For `COc1c(Nc2cc(Nc3cc(C#N)ccn3)nnc2C(N)=O)cccc1-c1cc(P(=O)(C2CC2)C2CC2)n(C)n1` [Compound A35], the “effect … (JAK2/JAK2 pathway)” value in test [1] is recorded as “had no effect on TPO-induced downstream STAT3 phosphorylation”. In addition, the “inhibition … (TYK2/JAK2 pathway)” value in test [2] was “effectively inhibited the downstream STAT4 phosphorylation induced by IL-12”. For the same compound, the “effect … (JAK1/JAK2 pathway)” value in test [3] is “inhibited JAK1/JAK2 pathway in a concentration-dependent manner”. The inhibition at 0.05 µM in test [4] (50 nM compound) was determined as 54%. Also, the inhibition at 0.2 µM in test [4] (200 nM compound) was 84%. Further, the inhibition at 1 µM in test [4] (1000 nM compound) amounted to 98%.

On to `[2H]C([2H])([2H])n1nc(-c2cccc(Nc3cc(Nc4ccc(OC)cn4)nnc3C(N)=O)c2OC)cc1P(=O)(C1CC1)C1CC1` [Compound A50], for which the “effect … (JAK2/JAK2 pathway)” value in test [1] was “had no effect on TPO-induced downstream STAT3 phosphorylation”. Moreover, the “inhibition … (TYK2/JAK2 pathway)” value in test [2] is given as “effectively inhibited the downstream STAT4 phosphorylation induced by IL-12”. Moreover, the “effect … (JAK1/JAK2 pathway)” value in test [3] was “inhibited JAK1/JAK2 pathway in a concentration-dependent manner”. For the same compound, the inhibition at 1 µM in test [4] (1000 nM compound) came to 77%.

BMS986165 [reference compound] yielded an IC50 in test [6] of 16.6 nM. In addition, the “effect … (JAK2/JAK2 pathway)” value in test [1] was “had no effect on TPO-induced downstream STAT3 phosphorylation”. Moreover, the “effect … (JAK1/JAK2 pathway)” value in test [3] was “had no effect on downstream STAT1 phosphorylation induced by IFN-γ”. For the same compound, the “Inhibitory activity % (50 nM)” value in test [4] (50 nM compound) amounted to 62%. Besides, the “Inhibitory activity % (200 nM)” value in test [4] (200 nM compound) was determined as 94%. Also, the “Inhibitory activity % (1000 nM)” value in test [4] (1000 nM compound) was found to be 99%.

As to `COc1c(Nc2cc(Nc3cc(C)ccn3)nnc2C(N)=O)cccc1-c1cc(P(=O)(C2CC2)C2CC2)n(C)n1` [Compound A12], the “effect … (JAK2/JAK2 pathway)” value in test [1] was “had no effect on TPO-induced downstream STAT3 phosphorylation”. The “inhibition … (TYK2/JAK2 pathway)” value in test [2] was “effectively inhibited the downstream STAT4 phosphorylation induced by IL-12”. Also, the “effect … (JAK1/JAK2 pathway)” value in test [3] is “inhibited JAK1/JAK2 pathway in a concentration-dependent manner”. Also, the inhibition at 0.05 µM in test [4] (50 nM compound) worked out at 25%. Besides, the inhibition at 0.2 µM in test [4] (200 nM compound) was determined as 33%. Besides, in test [4] (1000 nM compound), the inhibition at 1 µM stood at 93%.

With `COc1c(Nc2cc(Nc3cc(C)ccn3)nnc2C(N)=O)cccc1-c1cc(P(C)(C)=O)n(C)n1` [Compound A29], the “effect … (JAK2/JAK2 pathway)” value in test [1] is “had no effect on TPO-induced downstream STAT3 phosphorylation”. The “inhibition … (TYK2/JAK2 pathway)” value in test [2] is on record as “effectively inhibited the downstream STAT4 phosphorylation induced by IL-12”. In addition, in test [3], the “effect … (JAK1/JAK2 pathway)” value is given as “inhibited JAK1/JAK2 pathway in a concentration-dependent manner”. In test [4] (1000 nM compound), the inhibition at 1 µM came to 93%.
